The text below walks through data of US20210238162A1, “CHEMICAL COMPOUNDS” (GlaxoSmithKline Intellectual Property Development Limited, priority 2015, published 2021).

Counter-ions that a name gives are not always drawn. Where only a bound is given, the exact number is not on record here.

T1 sequence (O60760 whole entry): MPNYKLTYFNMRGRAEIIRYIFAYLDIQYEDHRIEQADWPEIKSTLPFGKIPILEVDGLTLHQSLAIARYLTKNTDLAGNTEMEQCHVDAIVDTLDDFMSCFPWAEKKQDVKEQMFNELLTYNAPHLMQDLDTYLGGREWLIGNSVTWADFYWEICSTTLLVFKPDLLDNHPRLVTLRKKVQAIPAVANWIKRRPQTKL

The assay concerns the target T1, haematopoietic prostaglandin D synthase (H-PGDS) (Homo sapiens, UniProt O60760).
T1 construct: Full length human H-PGDS cDNA (Invitrogen Ultimate ORF IOH13026) was amplified by PCR; made in house; host or cells: E. coli BL21 (DE3*), vector pET22b+
Description: H-PGDS RapidFire High Throughput Mass Spectrometry Assay. The class given is biochemical. To be noted: H-PGDS RapidFire MS assay, mean pIC50; read-out: Potency Range (mean pIC50) (converted). In outline: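 PGH2 (~10 μM burst) generated in situ from arachidonic acid by FLAG-tagged human COX-2 (Sf9-expressed), then converted to PGD2 by full-length human His-tagged H-PGDS from E. coli. PGD2 and PGF2α (substrate surrogate) quantified by RapidFire SPE-triple quadrupole MS; percent conversion calculated.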
`CS(=O)(=O)CCO[C@H]1CC[C@H](NC(=O)c2cnc3cc(OC(F)F)c(Cl)cc3c2)CC1` [Example 139, 6-Chloro-7-(difluoromethoxy)-N-(trans-4-(2-(methylsulfonyl)ethoxy)cyclohexyl)quinoline-3-carboxamide]: the IC50 was less than 10 nM. For `O=C(N[C@H]1CCN(CC2CC2)C1=O)c1cnc2cc(OC(F)F)c(Cl)cc2c1` [Example 120, (S)-6-Chloro-N-(1-(cyclopropylmethyl)-2-oxopyrrolidin-3-yl)-7-(difluoromethoxy)quinoline-3-carboxamide], the IC50 was 10 to 79.4 nM. Under `COc1cc(F)c2cc(C(=O)NC3CCN(c4nnnn4C)CC3)cnc2c1` [Example 30, 5-Fluoro-7-methoxy-N-(1-(1-methyl-1H-tetrazol-5-yl)piperidin-4-yl)quinoline-3-carboxamide] stands 10 to 79.4 nM. `CC(C)(O)[C@H]1CC[C@H](NC(=O)c2cnc3cc(C4CC4)c(Cl)cc3c2)CC1` [Example 39]: the IC50 was less than 10 nM. `Cn1nnnc1N1CCC(NC(=O)c2cnc3cc(C4CC4)c(Cl)cc3c2)CC1` [Example 34, 6-Chloro-7-cyclopropyl-N-(1-(1-methyl-1H-tetrazol-5-yl)piperidin-4-yl)quinoline-3-carboxamide]: the IC50 is less than 10 nM. Under `N#C[C@H]1CC[C@H](NC(=O)c2cnc3cc(OC(F)F)c(F)cc3c2)CC1` [Example 87, N-(trans-4-Cyanocyclohexyl)-7-(difluoromethoxy)-6-fluoroquinoline-3-carboxamide] stands 10 to 79.4 nM; under `O=C(N[C@H]1C[C@](O)(C(F)(F)F)C1)c1cnc2cc(OC(F)F)c(Cl)cc2c1` [Example 232, 6-Chloro-7-(difluoromethoxy)-N-((1s,3s)-3-hydroxy-3-(trifluoromethyl)cyclobutyl)quinoline-3-carboxamide], less than 10 nM; under `CC(C)(O)[C@H]1CC[C@H](NC(=O)c2cnc3cc(OC(F)(F)F)c(Cl)cc3c2)CC1` [Example 215B, 6-Chloro-N-((trans)-4-(2-hydroxypropan-2-yl)cyclohexyl)-7-(trifluoromethoxy)quinoline-3-carboxamide], less than 10 nM. As to `O=C(N[C@H]1CC[C@H](C(=O)N2CCOCC2)CC1)c1cnc2cc(OC(F)F)c(Cl)cc2c1` [Example 210, 6-Chloro-7-(difluoromethoxy)-N-((trans)-4-(morpholine-4-carbonyl)cyclohexyl)quinoline-3-carboxamide], the IC50 is less than 10 nM.

On to `CC(C)(O)[C@H]1CC[C@H](NC(=O)c2cnc3c(Cl)c(OC(F)F)c(F)cc3c2)CC1` [Example 235, 8-Chloro-7-(difluoromethoxy)-6-fluoro-N-(trans-4-(2-hydroxypropan-2-yl)cyclohexyl)quinoline-3-carboxamide], for which the IC50 is 10 to 79.4 nM. Under `O=C1CC(NC(=O)c2cnc3cc(OC(F)F)ccc3c2)c2ccccc2N1` (stereo not shown) [Example 9, 7-(Difluoromethoxy)-N-(2-oxo-1,2,3,4-tetrahydroquinolin-4-yl)quinoline-3-carboxamide] stands 10 to 79.4 nM.

As to `O=C(NC1CCc2ccccc2NC1=O)c1cnc2cc(OC(F)F)c(Cl)cc2c1` (stereo not shown) [Example 237, 6-Chloro-7-(difluoromethoxy)-N-(2-oxo-2,3,4,5-tetrahydro-1H-benzo[b]azepin-3-yl)quinoline-3-carboxamide], the IC50 was less than 10 nM. Then `C[C@]1(O)C[C@@H](NC(=O)c2cnc3cc(C4CC4)c(Cl)cc3c2)C1` [Example 40, 6-Chloro-7-cyclopropyl-N-((1s,3s)-3-hydroxy-3-methylcyclobutyl)quinoline-3-carboxamide], with 10 to 79.4 nM; and `CC(C)Oc1ccc2cc(C(=O)NC3CCN(c4nnnn4C)CC3)cnc2c1` [Example 115, 7-Isopropoxy-N-(1-(1-methyl-1H-tetrazol-5-yl)piperidin-4-yl)quinoline-3-carboxamide], with 100 to 1000 nM; and `C[C@H]1CCN1c1cc2ncc(C(=O)N[C@H]3CC[C@H](C(C)(C)O)CC3)cc2cc1F` [Example 174, 6-Fluoro-N-(trans-4-(2-hydroxypropan-2-yl)cyclohexyl)-7-((S)-2-methylazetidin-1-yl)quinoline-3-carboxamide], with 10 to 79.4 nM.

In the case of `C[C@H](N[C@H]1C[C@H](NC(=O)c2cnc3cc(OC(F)F)c(F)cc3c2)C1)C(F)F` [Example 73, 7-(Difluoromethoxy)-N-(trans-3-(((S)-1,1-difluoropropan-2-yl)amino)cyclobutyl)-6-fluoroquinoline-3-carboxamide], the IC50 is 10 to 79.4 nM. Take `O=C(N[C@H]1CCN(CC2CC2)C1=O)c1cnc2cc(OC(F)F)c(F)cc2c1` [Example 53, (S)—N-(1-(Cyclopropylmethyl)-2-oxopyrrolidin-3-yl)-7-(difluoromethoxy)-6-fluoroquinoline-3-carboxamide]: the IC50 is 10 to 79.4 nM. Then `CC(C)Nc1cc2ncc(C(=O)N[C@H]3CC[C@H](C(C)(C)O)CC3)cc2cc1Cl` [Example 212, 6-Chloro-N-((trans)-4-(2-hydroxypropan-2-yl)cyclohexyl)-7-(isopropylamino)quinoline-3-carboxamide], with less than 10 nM. Turning to `O=C(N[C@H]1CC[C@H](N[C@@H](CO)C(F)(F)F)CC1)c1cnc2cc(OC(F)F)c(Cl)cc2c1` [Example 131, 6-Chloro-7-(difluoromethoxy)-N-(trans-4-(((S)-1,1,1-trifluoro-3-hydroxypropan-2-yl)amino)cyclohexyl)quinoline-3-carboxamide], the IC50 is less than 10 nM. For `C#CCCNC(=O)CO[C@H]1CC[C@H](NC(=O)c2cnc3cc(OC(F)F)c(F)cc3c2)CC1` [Example 103, N-(trans-4-(2-(but-3-yn-1-ylamino)-2-oxoethoxy)cyclohexyl)-7-(difluoromethoxy)-6-fluoroquinoline-3-carboxamide], the IC50 is 10 to 79.4 nM.

In the case of `CC1(O)CCC(NC(=O)c2cnc3cc(OC(F)F)c(Cl)cc3c2)C1` (stereo not shown) [Example 145, 6-Chloro-7-(difluoromethoxy)-N-(3-hydroxy-3-methylcyclopentyl)quinoline-3-carboxamide], the IC50 was 10 to 79.4 nM. Under `C[C@H](N[C@H]1CC[C@H](NC(=O)c2cnc3cc(OC(F)F)c(Cl)cc3c2)CC1)C(F)F` [Example 130, 6-Chloro-7-(difluoromethoxy)-N-(trans-4-(((S)-1,1-difluoropropan-2-yl)amino)cyclohexyl)quinoline-3-carboxamide] stands less than 10 nM. Under `Cc1cc(NC(=O)c2cnc3cc(OC(F)F)ccc3c2)[nH]n1` [Example 8, 7-(Difluoromethoxy)-N-(3-methyl-1H-pyrazol-5-yl)quinoline-3-carboxamide] stands 10 to 79.4 nM; under `O=C(N[C@H]1CCNC1=O)c1cnc2cc(C3CC3)c(F)cc2c1` [Example 41, (S)-7-cyclopropyl-6-fluoro-N-(2-oxopyrrolidin-3-yl)quinoline-3-carboxamide hydrochloride], 10 to 79.4 nM. On to `O=C(NC1CCN(c2cccnc2)CC1)c1cnc2cc(OC(F)F)c(F)cc2c1` [Example 96, 7-(Difluoromethoxy)-6-fluoro-N-(1-(pyridin-3-yl)piperidin-4-yl)quinoline-3-carboxamide], for which the IC50 is 10 to 79.4 nM. Under `CC1CCN1c1cc2ncc(C(=O)N[C@H]3CCNC3=O)cc2cc1Cl` (stereo partly drawn) [Example 182, 6-Chloro-7-(2-methylazetidin-1-yl)-N—((S)-2-oxopyrrolidin-3-yl)quinoline-3-carboxamide] stands 10 to 79.4 nM; under `CC(C)(O)C(=O)N1CCC(NC(=O)c2cnc3cc(OC(F)F)c(Cl)cc3c2)CC1` [Example 220, 6-Chloro-7-(difluoromethoxy)-N-(1-(2-hydroxy-2-methylpropanoyl)piperidin-4-yl)quinoline-3-carboxamide], less than 10 nM; under `CS(=O)(=O)N[C@H]1CC[C@H](NC(=O)c2cnc3cc(OC(F)F)c(F)cc3c2)CC1` [Example 56, 7-(Difluoromethoxy)-6-fluoro-N-(trans-4-(methylsulfonamido)cyclohexyl)quinoline-3-carboxamide], 10 to 79.4 nM.

In the case of `CC(C)(O)[C@H]1CC[C@H](NC(=O)c2cnc3c(F)c(OC(F)F)c(Cl)cc3c2)CC1` [Example 236, 6-Chloro-7-(difluoromethoxy)-8-fluoro-N-(trans-4-(2-hydroxypropan-2-yl)cyclohexyl)quinoline-3-carboxamide], the IC50 was less than 10 nM.

As for `C[C@@H](NC[C@H]1CC[C@H](NC(=O)c2cnc3cc(OC(F)F)c(F)cc3c2)CC1)C(F)F` [Example 99, 7-(Difluoromethoxy)-N-(trans-4-((((R)-1,1-difluoropropan-2-yl)amino)methyl)cyclohexyl)-6-fluoroquinoline-3-carboxamide], the IC50 is 10 to 79.4 nM. Then `O=C(N[C@H]1CC[C@H](NCC(F)F)CC1)c1cnc2cc(C3CC3)c(F)cc2c1` [Example 43, 7-Cyclopropyl-N-(trans-4-((2,2-difluoroethyl)amino)cyclohexyl)-6-fluoroquinoline-3-carboxamide], with less than 10 nM. Then `C#CCNC(=O)CO[C@H]1CC[C@H](NC(=O)c2cnc3cc(OC(F)F)c(F)cc3c2)CC1` [Example 102, 7-(Difluoromethoxy)-6-fluoro-N-(trans-4-(2-oxo-2-(prop-2-yn-1-ylamino)ethoxy)cyclohexyl)quinoline-3-carboxamide], with 10 to 79.4 nM; and `C[C@@H](N[C@H]1C[C@H](NC(=O)c2cnc3cc(OC(F)F)c(F)cc3c2)C1)C(F)F` [Example 74, 7-(Difluoromethoxy)-N-(trans-3-(((R)-1,1-difluoropropan-2-yl)amino)cyclobutyl)-6-fluoroquinoline-3-carboxamide], with 10 to 79.4 nM. Take `O=C(N[C@H]1CC[C@H](N[C@@H](CO)C(F)(F)F)CC1)c1cnc2cc(OC(F)F)c(F)cc2c1` [Example 85, 7-(Difluoromethoxy)-6-fluoro-N-(trans-4-(((S)-1,1,1-trifluoro-3-hydroxypropan-2-yl)amino)cyclohexyl)quinoline-3-carboxamide]: the IC50 is 10 to 79.4 nM.
